# Like-named read-outs stand apart in the source and are kept apart here. Marks after values point to notes of the source that are not given here.
# Legend:
# A2780 ovarian = tested on: A2780 ovarian; set-up: method as in PMID 36296713, PMID 36142383; conditions: cited from earlier work
# BE2C neuroblastoma = tested on: BE2C neuroblastoma; set-up: method as in PMID 36296713, PMID 36142383; conditions: cited from earlier work
# HT29 colon = tested on: HT29 colon; set-up: method as in PMID 36296713, PMID 36142383; conditions: cited from earlier work
# H460 lung = tested on: H460 lung; set-up: method as in PMID 36296713, PMID 36142383; conditions: cited from earlier work
# SJG2 glioblastoma = tested on: SJG2 glioblastoma; set-up: method as in PMID 36296713, PMID 36142383; conditions: cited from earlier work
# A431 skin = tested on: A431 skin; set-up: method as in PMID 36296713, PMID 36142383; conditions: cited from earlier work
# MCF7 breast = tested on: MCF7 breast; set-up: method as in PMID 36296713, PMID 36142383; conditions: cited from earlier work
# multiple cell lines = tested on: multiple cell lines; set-up: method as in PMID 36296713, PMID 36142383; conditions: mean over all cell lines tested; cited from earlier work
# MIA pancreas = tested on: MIA pancreas; set-up: method as in PMID 36296713, PMID 36142383; conditions: cited from earlier work
# U87 glioblastoma = tested on: U87 glioblastoma; set-up: method as in PMID 36296713, PMID 36142383; conditions: cited from earlier work
# [1] = tested on: ADDP ovarian variant (cisplatin-resistant A2780 clone); set-up: method as in PMID 36296713, PMID 36142383; conditions: cited from earlier work
# Du145 prostate = tested on: Du145 prostate; set-up: method as in PMID 36296713, PMID 36142383; conditions: cited from earlier work
# HT29 colon cells [2] = tested on: HT29 colon cells; set-up: method as in PMID 36296713, PMID 36142383; conditions: cited from earlier work
# HT29 colon cells [3] = test: Mitochondrial membrane potential, TMRE-MtMP assay; assay type: cell-based, human; conditions: treatment at GI50 concentration (FCCP positive control 20 μM)
# Excerpt: To study the MtMP changes in treated cells, a TMRE-MtMP Assay Kit (Abcam, Cambridge, MA, USA) was used (see Supplementary Materials).
# TMRE was used to stain HT29 colon cells, and treatment with the complexes and ligands was completed at each specific GI50 concentration. The MtMP changes detected are expressed as RFU. Additionally, lower RFU values correspond to a decline in mitochondrial activity. […]
# dimethylthiazol-2-yl]-2,5-diphenyltetrazolium bromide) assay and absorbance was read at 540 nm. An eight-point dose response curve was produced from which the GI50 value was calculated, representing the drug concentration at which cell growth was inhibited by 50% based on the difference between the optical density values on day 0 and those at the end of drug exposure. […]
# 5. Mitochondrial Membrane Potential (MtMP)
# In 96-well plates, 25,000 cells/mL of HT29 colon cells in DMEM were seeded. Cells were treated with a GI50 drug concentration for each complex. […]
# washed with PBS and stained with 1 μM tetramethylrhodamine, ethyl ester (TMRE) and incubated for 30 min. TMRE was then removed, and cells were then re-washed with PBS (0.2% BSA), after which phenol red free media was added. The plates were directly scanned to measure fluorescence (expressed as RFU), using the Glo-Max®-Multimode […]
# microplate reader (Promega Corporation, Alexandra, VIC, Australia) at an […]
# For the positive control, 20 μM carbonyl cyanide 4-(trifluoromethoxy) phenylhydrazone (FCCP)) was added to the cells and incubated for 10 min. The cells were washed with PBS (0.2% BSA) and stained with TMRE (1 μM) for 30 min; this was removed and phenol red free media was added, and the final solution was scanned as mentioned above. […]
# [4] = tested on: non-tumour derived MCF10A breast line; set-up: method as in PMID 36296713, PMID 36142383; conditions: cited from earlier work
# MCF10A / Du145 = tested on: MCF10A / Du145; set-up: method as in PMID 36296713, PMID 36142383; conditions: GI50 in MCF10A/GI50 in Du145, from data of previous studies; cited from earlier work
# [5] = set-up: method as in PMID 24951889; conditions: water, from the literature; cited from earlier work
# HT29 colon cells [6] = test: ROS production, DCFDA/H2DCFDA cellular ROS assay; assay type: cell-based, human; conditions: treatment at GI50 concentration (TBHP positive control 20 μM)
# Method: To determine the presence of ROS in treated cells, a DCFDA/H2DCFDA-cellular ROS Assay Kit (Abcam, Cambridge, MA, USA) was utilised, as previously reported. The ROS potential of platinum(II) precursors and platinum(IV) scaffolds, which were determined using the same method, were also presented in this study for comparison.
# Additionally, the ROS potential of the platinum(II) precursors and platinum(IV) scaffolds was determined previously and was presented here to allow for comparison (Table 10 and Figure 13). […] Treatment with the complexes and ligands was completed at each specific GI50 concentration. […]
# dimethylthiazol-2-yl]-2,5-diphenyltetrazolium bromide) assay and absorbance was read at 540 nm. An eight-point dose response curve was produced from which the GI50 value was calculated, representing the drug concentration at which cell growth was inhibited by 50% based on the difference between the optical density values on day 0 and those at the end of drug exposure.
# 4. Reactive Oxygen Species (ROS) Potential
# A total of 25,000 cells/mL of HT29 cells in DMEM were seeded in 96-well plates. Cells were washed with 1X kit buffer, and then stained with 25 μM 2’,7’-dichlorofluorescein diacetate (DCFH-DA) and incubated for 45 min. DCFH-DA was then removed, and cells were then re-washed with 1X kit buffer, after which phenol red free media was added.
# Cells were then treated with a GI50 drug concentration for each complex. The plates were directly scanned to measure fluorescence (relative fluorescence units (RFU)) at different time points using the Glo-Max®-Multimode microplate reader (Promega Corporation, Alexandra, VIC, Australia) at an excitation/emission of 485/535 nm. […]
Compound,GI50 (A2780 ovarian),GI50 (BE2C neuroblastoma),GI50 (HT29 colon),GI50 (H460 lung),GI50 (SJG2 glioblastoma),GI50 (A431 skin),GI50 (MCF7 breast),GI50 (multiple cell lines),GI50 (MIA pancreas),GI50 (U87 glioblastoma),GI50 [1],GI50 (Du145 prostate),"ROS Production (HT29 colon cells [2]; HT29, 24 h)","ROS Production (HT29 colon cells [2]; HT29, 48 h)","ROS Production (HT29 colon cells [2]; HT29, 72 h)","MtMP Changes (HT29 colon cells [3]; HT29, 24 h)","MtMP Changes (HT29 colon cells [3]; HT29, 48 h)","MtMP Changes (HT29 colon cells [3]; HT29, 72 h)",GI50 [4],Selectivity Cytotoxicity Index (SCI) (MCF10A / Du145),further results
"O=C1[O][Pt]2([NH][C@@H]3CCCC[C@H]3[NH]2)[O]C1=O (relative stereo) [Oxaliplatin, trans-L-(1R,2R-diaminocyclohexane) oxalatoplatinum(II)]",160 ± 100 nM,900 ± 200 nM,900 ± 200 nM,1600 ± 100 nM,3000 ± 1200 nM,4100 ± 500 nM,500 ± 100 nM,1460 ± 320 nM,900 ± 200 nM,1800 ± 200 nM,800 ± 100 nM,2900 ± 400 nM,–,–,–,–,–,–,–,–,–
Cc1cc2c3c4c1=CC=C[N]4[Pt+2]([OH])([OH])[N]3C=CC=2.N[C@H]1CCCC[C@@H]1N [5MESS(IV)(OH)2],240 ± 9 nM,1400 ± 300 nM,60 ± 6 nM,60 ± 5 nM,640 ± 70 nM,360 ± 58 nM,1200 ± 390 nM,443 ± 81 nM,160 ± 29 nM,900 ± 58 nM,130 ± 22 nM,41 ± 5 nM,234 ± 1 RFU,323 ± 9 RFU,335 ± 2 RFU,301 ± 14 RFU,214 ± 9 RFU,198 ± 4 RFU,130 ± 19 nM,3.17,–
Cc1c(C)c2c3c4c1=CC=C[N]4[Pt+2]([OH])([OH])[N]3C=CC=2.N[C@H]1CCCC[C@@H]1N [56MESS(IV)(OH)2],59 ± 7 nM,240 ± 22 nM,36 ± 7 nM,190 ± 150 nM,210 ± 45 nM,120 ± 22 nM,480 ± 140 nM,151 ± 50 nM,43 ± 2.5 nM,190 ± 23 nM,170 ± 120 nM,15 ± 2.6 nM,259 ± 3 RFU,356 ± 11 RFU,438 ± 7 RFU,245 ± 16 RFU,177 ± 11 RFU,125 ± 12 RFU,61 ± 7 nM,4.07,–
"N.N.O=C([O-])C1(C(=O)[O-])CCC1.[Pt+2] [Carboplatin, cis-diammine(1,1-cyclobutanedicarboxylato) platinum(II)]",9200 ± 2900 nM,19000 nM,> 50000 nM,14000 nM,5700 ± 200 nM,24000 nM,> 50000 nM,32200 nM,> 50000 nM,> 50000 nM,> 50000 nM,15000 nM,–,–,–,–,–,–,> 50000 nM,3.33,Solubility [5]: 11.7 * mg/mL
"N#CC(C#N)=NNc1ccc(OC(F)(F)F)cc1 [FCCP, carbonyl cyanide 4-(trifluoromethoxy) phenylhydrazone]",–,–,–,–,–,–,–,–,–,–,–,–,–,–,–,194 ± 10 RFU,143 ± 5 RFU,80 ± 5 RFU,–,–,–
N[C@H]1CCCC[C@@H]1N.[OH][Pt+2]1([OH])[N]2C=CC=c3ccc4c(c32)[N]1C=CC=4 [PHENSS(IV)(OH)2],800 ± 84 nM,3000 ± 530 nM,710 ± 300 nM,1700 ± 200 nM,1700 ± 350 nM,4300 ± 530 nM,16000 nM,3320 ± 880 nM,3400 ± 2200 nM,4900 ± 610 nM,1300 ± 350 nM,310 ± 92 nM,144 ± 5 RFU,273 ± 4 RFU,303 ± 1 RFU,321 ± 17 RFU,241 ± 10 RFU,216 ± 8 RFU,1700 ± 200 nM,5.48,–
"CC(C)(C)OO [TBHP, tert-butyl hydroperoxide]",–,–,–,–,–,–,–,–,–,–,–,–,–,–,–,–,–,–,–,–,"ROS Production (HT29 colon cells [6]; HT29, 24 h): 658 ± 28 RFU; ROS Production (HT29 colon cells [6]; HT29, 48 h): 504 ± 15 RFU; ROS Production (HT29 colon cells [6]; HT29, 72 h): 497 ± 10 RFU"
